Molecules are shown by their SMILES.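 Compound exposure: 48 hours, 5 concentrations, 96-well plates. GI50 marks 50% less growth. TGI is the concentration that stops growth completely.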

Holding throughout (assay): growth of human tumour cells (NCI), 48 h
In assay [1] the test system is HL-60(TB) leukemia.
For assay [2], the system named is UACC-257 melanoma.
The subject of assay [3] is NCI-H460 lung.
The subject of assay [4] is HCT-15 colon.
Assay [5] deals with COLO 205 colon.
Assay [6] concerns NCI-H23 lung.
Assay [7] concerns IGROV1 ovarian.
Assay [8] relates to MCF7 breast.
For assay [9], the system named is M19-MEL melanoma.
The subject of assay [10] is XF 498 CNS.

Turning to `COC(=O)[C@H](Cc1cn(C)cn1)NC(=O)[C@@H](NC(=O)Nc1cc(C(F)(F)F)cc(C(F)(F)F)c1)C(C)C`, the GI50 was greater than 10 µM in assay [1]; greater than 10 µM in assay [2]; 3.53 µM in assay [3]; greater than 10 µM in assay [4]; 4.94 µM in assay [5]; 4.6 µM in [6]. Moreover, the GI50 in assay [7] is 6.15 µM; in assay [8], 1.98 µM. The TGI in [1], in assay [2], in assay [3], in assay [4], in assay [5] and in assay [6] was greater than 10 µM in each case. In addition, the TGI was greater than 10 µM in assay [7] and 4.67 µM in assay [8].

Turning to `COc1ccc(/C(CC2OC(=O)c3ccccc32)=N\NC(N)=O)cc1` (centres undefined), the TGI in assay [1], in [2], in [3], in assay [4], in assay [5] and in assay [6] was greater than 100 µM in each case. Also, the TGI in [7] and in [8] was greater than 100 µM each time.

Regarding `COc1cc(CCc2ccc(OC(C)=O)cc2)cc(OC)c1OC`, the TGI in [1], in [2], in assay [3], in [4], in [5] and in assay [9] was greater than 100 µM in each case. This compound registered a TGI in assay [7] greater than 100 µM.

For the compound `O=c1[nH]c2ccc([N+](=O)[O-])c(Cl)c2c2ccccc12`, the TGI is 16.6 µM in assay [1]; 15.6 µM in assay [2]; 4.47 µM in assay [3]; greater than 100 µM in [4]; 26.3 µM in assay [5]; 24.7 µM in assay [6]. The results for the TGI in [7] and in assay [8] were 28.9 µM and 2.23 µM, respectively.

Regarding `COc1cc(N(CCC#N)CCC#N)ccc1/C(N=Nc1ccc(C(=O)O)cc1)=N/NC(=O)c1cc(Br)ccc1O`, the GI50 in [1] was 55.4 µg/mL; in assay [2] it was greater than 150 µg/mL; in [3], 40.9 µg/mL; in [4] it was 35.8 µg/mL; in [5] it was 43.3 µg/mL; in assay [6], greater than 150 µg/mL. Besides, the GI50 was 78.1 µg/mL in assay [7] and 57.3 µg/mL in assay [8]. The TGI in assay [1] was greater than 150 µg/mL; in assay [2], greater than 150 µg/mL; in assay [3], greater than 150 µg/mL; in assay [4] it was 95 µg/mL; in [5] it was 140 µg/mL; in assay [6] it was greater than 150 µg/mL. Also, the TGI in [7] and in [8] was greater than 150 µg/mL each time.

As to `COc1cc(/C=C\c2cc(OC)c(OC)c(OC)c2)cc(NS(=O)(=O)c2ccc(Cl)cc2)c1OC`, the GI50 in [1] was 0.249 µM; in [2], 12.5 µM; in assay [3], 0.364 µM; in [4], 0.399 µM; in assay [5], 0.253 µM; in assay [6], 0.71 µM. The results for the GI50 in assay [7] and in [8] were 0.904 µM and 0.375 µM, respectively. In addition, the TGI in assay [1] was 0.694 µM; in assay [2], greater than 100 µM; in [3], 51.4 µM; in [4], greater than 100 µM; in assay [5], 0.652 µM; in assay [6], greater than 100 µM. Further, the TGI in assay [7] and in [8] was greater than 100 µM each time.

On to `C#Cc1cccc(NC(=O)C2CCCN(C(=O)CCl)C2)c1` (centres undefined), for which the GI50 is greater than 82.5 µM in assay [1]; greater than 82.5 µM in assay [2]; greater than 82.5 µM in assay [3]; 28.3 µM in assay [4]; 21.5 µM in assay [5]; 21.8 µM in [6]. Also, the GI50 was 14.3 µM in assay [7] and greater than 82.5 µM in assay [8]. For the same compound, the TGI in assay [1] was greater than 82.5 µM; in [2] it was greater than 82.5 µM; in assay [3] it was greater than 82.5 µM; in assay [4], greater than 82.5 µM; in assay [5], 45 µM; in assay [6] it was greater than 82.5 µM. The values for the TGI in [7] and in [8] were 33.3 µM and greater than 82.5 µM, respectively.

In the case of `CN(C)c1ccc(O[Si](Oc2ccc(N(C)C)cc2)(Oc2ccc(N(C)C)cc2)Oc2ccc(N(C)C)cc2)cc1`, the TGI in assay [10], in [1], in assay [2], in assay [5], in [6] and in assay [9] was greater than 100 µM each time. Moreover, the TGI in assay [7] was greater than 100 µM.

`Nc1ncnc2c1nc(Cl)n2C1OC(CO)C(O)C1O` (centres undefined): the TGI in assay [1] is 3.97 µM; in assay [2], greater than 100 µM; in assay [3], greater than 100 µM; in assay [4] it was greater than 100 µM; in [5] it was greater than 100 µM; in [6] it was greater than 100 µM. The TGI in [7] and in [8] was greater than 100 µM in each case.

Take `COc1cccc(C2C(C#N)=C(N)Oc3cc4c(cc32)OCO4)c1` (centres undefined): the GI50 in [1] is 0.029 µM; in [2] it was 0.0471 µM; in [3] it was 0.0438 µM; in assay [4], 0.0525 µM; in [5], 0.0492 µM; in assay [6], 0.0694 µM. For the same compound, the GI50 in assay [7] was 0.305 µM; in assay [8], 0.0351 µM. The TGI in [1] is 0.279 µM; in [2] it was 28.1 µM; in assay [3], 12.2 µM; in assay [4] it was greater than 43.5 µM; in assay [5], 0.325 µM; in assay [6], 15.8 µM. The TGI turned out to be 30.8 µM in assay [7] and 18.1 µM in [8].

`OCCCCC#Cc1ccccc1C#Cc1ccc(C(F)(F)F)cc1`: the GI50 in assay [1] is 17.7 µM; in [2] it was 14.9 µM; in [3], 23.3 µM; in [4] it was 12.5 µM; in assay [5], 17.4 µM; in assay [6] it was 16.8 µM. The GI50 in assay [7] is 17.6 µM; in [8] it was 33.3 µM. Further, the TGI is 38.8 µM in assay [1]; 28.2 µM in assay [2]; 60.3 µM in assay [3]; 25.4 µM in [4]; 33 µM in [5]; 32.4 µM in assay [6]. The TGI in assay [7] was found to be 32 µM; in assay [8], 85.6 µM.

Values taken from PubChem BioAssay (NCI).
